Results published in PMC7853623, “Dose- and time-dependent tolerability and efficacy of organo-osmium complex FY26 and its tissue pharmacokinetics in hepatocarcinoma-bearing mice” (Metallomics: Integrated Biometal Science, 2020).

Experiments:
A2780 cells = assay: Apoptosis and ROS induction on exposure in A2780 cells; assay type: cell-based; conditions: data not shown
[1] = Tolerability (survival, body weight) in Hepa1–6-bearing C57Bl/6 mice (Experiments 3 and 4); assay type: in vivo
Experimental: (§1) Male CD1-Foxn1^nu or C57Bl/6 (B6) mice aged 5–10 weeks (Janvier, Le Genest St Isle, France) were housed in groups of three to four mice per cage in temperature-controlled (23 ± 1°C), ventilated (100 ± 10 l/min), and light-tight chronobiological animal facilities (Eurobioconcept, Bonneuil s/Marne, France). They were synchronized with an alternation of 12 h of light (L) and 12 h of darkness (D) (LD12:12), with light starting at 07:00, and had ad libitum access to food and water throughout all the experiments. In line with convention, onset of light and that of darkness are referred to as Zeitgeber time 0 (ZT0) and ZT12, respectively. After one or more weeks on this regimen and on the day prior to tumour inoculation, both flanks of each B6 mouse were shaved using clippers.
(§2) The mice, aged 8–10 weeks, were anesthetized under isoflurane and Hepa1–6-Per2-luc cells were injected subcutaneously in both postero-lateral flanks of each mouse. Mice were then inspected and weighed daily until experiment completion. Tumour sites were inspected daily until tumours became palpable and amenable to daily measurements of perpendicular diameters using callipers. Measurements were always taken at the same circadian time.
(§3) Mean daily tumour weight per mouse was calculated as the average volume of the right and left flank tumours according to (L × W^2)/2, where L is the larger and W the smaller perpendicular diameter, and 1 cm^3 corresponds to 1 g. Mice with an estimated tumour weight exceeding 10% of their body weight or those in poor general condition or loosing >15% of their starting body weight were euthanized, in compliance with our Home Office Project Licence specifications approved by the Animals in Science Committee and Animal Welfare and Ethical Review Body.
(§4) Experiment 3 aimed at assessing the efficacy and tolerability of the more soluble formulation of FY26⋅Cl in Hepa1–6-bearing C57Bl/6 mice. The mice were randomized to receive vehicle or FY26⋅Cl, at a cumulative dose of 60 mg/kg. Treated mice received ip injections of 20 mg/kg of FY26⋅Cl at ZT6 12, 14, and 17 days after tumour inoculation. Control mice received ip vehicle on the same days.
(§5) Experiment 4 aimed at confirming efficacy and optimizing timing and scheduling of the same cumulative dose of 60 mg/kg of FY26⋅Cl. Mice were randomized to receive either vehicle or FY26⋅Cl as four injections of 15 mg/kg at ZT6 or ZT18 on days 11, 14, 17, and 21.
(§6) For Experiments 1 and 2, FY26⋅PF6 was diluted in the vehicle, composed of 1% Tween 80 (Sigma-Aldrich, Gillingham, UK), 5% DMSO (Corning, New York, USA) and 94% of 0.9% saline (Prep room, Life Sciences, University of Warwick) under laminar flow. FY26⋅PF6 concentration was confirmed with ICP-MS. For Experiments 3–5, using FY26⋅Cl, a stock solution of 50 mg/ml FY26⋅Cl was prepared in 0.9% saline on the day of injection and diluted as required; the vehicle consisted of 0.9% saline.
(§7) Body weight data were expressed as % body weight measured on the first treatment day. Tumour weights for individually treated mice were expressed as % of the median control values, in order to determine % inhibition. Mean and standard error or median and interquartiles were computed for the different treatment groups and experimental conditions, i.e. drug timing and day of assessment. Groups were compared using parametric or non-parametric ANOVAs, respectively.

[2] = Comparative maximum aqueous solubility study (ICP-OES); assay type: physicochemical; conditions: doubly deionized water, 24 h shaking, ambient 18–20°C, mean ± SD of N = 3
Experimental: One to five milligrams of FY26⋅PF6 or FY26⋅I, and 180 mg of FY26⋅Cl were dispensed into Falcon tubes in triplicates, then 1 ml of doubly deionized water (DDIW) was added. The Falcon tubes were placed on a Vibrax VXB basic shaker (Sigma-Aldrich, Dorset, UK) for 24 h at a speed of […] (ambient temperature 18–20°C), and were checked at intervals (further solids were added if total saturation appeared to occur). The samples were filtered through syringe filters (PTFE, 0.45 µm, 4 mm) to remove any undissolved solids. The concentrations of Os in the solutions were measured using inductively coupled plasma-optical emission spectroscopy (ICP-OES) (Agilent, Stockport, UK).
Analyses of FY26 solutions were carried out on a Perkin-Elmer (optical emission spectrometer) Optima 5300 DV instrument. All samples and standards were prepared fresh on the day in DDIW with distilled HNO3 (3.2%), thiourea (5 mM), and ascorbic acid (0.1 g/l). The osmium standard was diluted to the following concentrations for the calibration curve: 0, 25, 50, 100, 200, 400, 600, 800, and 1000 ppb. The samples were diluted by serial dilutions of typically 1 in 10 until their concentrations fitted within the calibration range and % total dissolved solids were below 0.2%. Samples were prepared in triplicates and the Os optical emissions at 228.226 and 225.585 nm were detected and integrated.

[3] = system: Hepa1–6-Per2-luc hepatocarcinoma tumours; assay: Antitumour efficacy in Hepa1–6-bearing C57Bl/6 mice (Experiments 3 and 4); assay type: in vivo; conditions: for percentage tumour inhibition relative to control: Experiment 4, end
Experimental: as §1
Mouse hepatocarcinoma (Hepa1–6, ATCC® CRL-1830™) was kindly provided by S. Dulong (INSERM U935, Villejuif, France), following their stable transfection with the Per2-luc [pLV7-Bsd-P(Per2)-dLuc] reporter constructs within the C5SYS ERASYSBIO+ project (FP7). Mouse Hepa1–6-Per2-luc cells were cultured in 15-cm Petri dishes until they reached 80% confluency. On the day of tumour inoculation, the cells were trypsinized and resuspended at a concentration of 10^6 cells/100 µl in PBS solution alone (Experiments 1 and 2) or with 1:1 MatriGel™ (Corning, Flintshire, UK) (Experiments 3–5) and kept on ice until injected.
as §2, §3, §4, §5, §6, §7

CN(C)c1ccc(N=Nc2ccccn2)cc1.Cc1ccc(C(C)C)cc1.[Cl-].[I-].[Os+2] [FY26⋅Cl]
ROS induction (A2780 cells): did induce an increase in ROS
induction of apoptosis (A2780 cells): did not induce apoptosis
treated mice alive at completion ([1]; Experiment 4, 15 mg/kg ip × 4, ZT6 and ZT18): 45%
loss of body weight before treatment ([1]; after a cumulative dose of 60 mg/kg): ~10% (±3.2%)
maximum aqueous solubility [2]: 215 (±10) mM
median percentage tumour inhibition relative to controls ([3]; Experiment 3, at completion, 20 mg/kg ip × 3 at ZT6): 76.5%
median tumour weight, treatment group ([3]; Experiment 3, day 20, 20 mg/kg ip × 3 at ZT6 (control 128.8 mg)): 30.2 mg
median percentage tumour inhibition relative to controls ([3]; Experiment 4, at completion, 15 mg/kg ip × 4, irrespective of dosing time): 42.6%
median tumour weight, treatment groups ZT6 and ZT18 ([3]; Experiment 4, day 23, 15 mg/kg ip × 4 (control 213.2 mg)): 122.3 mg
percentage tumour inhibition relative to control ([3]; 15 mg/kg ip × 4 at ZT6): 12.5%
percentage tumour inhibition relative to control ([3]; 15 mg/kg ip × 4 at ZT18): 66%
tumour inhibition as compared to controls ([3]; hepatocarcinoma-bearing mice, overall statement in discussion): ~60%
